For 22 compounds, IC50 results are on record in patent publication US7989438B2, “Therapeutic compounds” (Istituto di Ricerche di Biologia Molecolare P. Angeletti SpA, priority 2007, dated 2011).

The test system of this experiment is HCV subgenomic replication. Kind of experiment: Cell based HCV replication assay (subgenomic replicon in Huh-7 cells, NS3 Cell-ELISA). To be noted: activity ranges, read-out: IC50* (nM), Inhibition of HCV subgenomic replication. Put shortly: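 Huh-7 cells stably carrying the I377neo/NS3-3′/wt subgenomic replicon, seeded at 10^4 cells/well in DMEM/10% FCS and exposed to inhibitor for 96 h. NS3 expression was measured by Cell-ELISA (mAb 10E5/24, alkaline phosphatase, absorbance 405/620 nm), in duplicate. IC50 was fitted to the Hill equation, with background from parental Huh-7 cells.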

The mark [1] stands for this setting: Hepatitis C virus, Huh-7, Table 3, various macrocycles.
Setting [2] is: Hepatitis C virus, Huh-7, Table 5, various macrocycles.

Like-named read-outs stand apart in the source and are kept apart here. Some results are limits rather than exact numbers.

For the compound `O=C1NS(=O)(=O)N2CCN(CCN(CCF)[C@H]3COc4ccccc4-c4c(C5CCCCC5)c5ccc1cc5n4C3)CC2` [Example 308, (20R)-30-cyclohexyl-21-(2-fluoroethyl)-18-oxa-2-thia-1,3,10,21,24-pentaazahexacyclo[22.2.2.1^5,9.1^8,11.1^10,20.0^12,17]hentriaconta-5(31),6,8,11(30),12,14,16-heptaen-4-one 2,2-dioxide], the IC50 under setting [1] is 25 to 150 nM. For `O=C1NS(=O)(=O)N2CCCN(CCN(Cc3ccccc3)[C@H]3COc4ccccc4-c4c(C5CCCCC5)c5ccc1cc5n4C3)CC2` [Example 309, (20R)-21-benzyl-31-cyclohexyl-18-oxa-2-thia-1,3,10,21,24-pentaazahexacyclo[22.3.2.1^5,9.1^8,11.1^10,20.0^12,17]dotriaconta-5(32),6,8,11(31),12,14,16-heptaen-4-one 2,2-dioxide], the half-inhibitory concentration (IC50) under setting [1] was 150 to 500 nM. With `CN1CCNCCN(C)S(=O)(=O)NC(=O)c2ccc3c(C4CCCCC4)c4n(c3c2)CC1COc1ccccc1-4` [Example 401, (7S)-14-cyclohexyl-18,24-dimethyl-7,8-dihydro-6H-7,11-(epiminoethanoiminoethanoiminothioiminomethano)-indolo[1,2-e][1,5]benzoxazocin-15-one 17,17-dioxide], the concentration for half-maximal inhibition (IC50) (Table 4, various macrocycles) is 25 to 150 nM.

On to `CN(C)CCN1CCOCCN(C)S(=O)(=O)NC(=O)c2ccc3c(C4CCCCC4)c4n(c3c2)CC1COc1ccccc1-4` [Example 402, (7R)-14-cyclohexyl-24-[2-(dimethylamino)ethyl]-18-methyl-7,8-dihydro-6H-7,11-(epiminoethanooxyethanoiminothioiminomethano)indolo[1,2-e][1,5]benzoxazocin-15-one 17,17-dioxide], for which the IC50 (Table 4, various macrocycles) was below 25 nM. Consider `C=CCc1cccc2c1OCC1Cn3c-2c(C2CCCCC2)c2ccc(cc23)C(=O)NS(=O)(=O)N(C)CCN(CC)CCN1C` [Example 403, (7R)-4-allyl-14-cyclohexyl-21-ethyl-18,24-dimethyl-7,8-dihydro-6H-7,11-(epiminoethanoiminoethanoiminothioiminomethano)-indolo[1,2-e][1,5]benzoxazocin-15-one 17,17-dioxide], for which the IC50 (Table 4, various macrocycles) was 25 to 150 nM. Regarding `CCN1CCN(C)C2COc3c(F)cccc3-c3c(C4CCCCC4)c4ccc(cc4n3C2)C(=O)NS(=O)(=O)N(C)CC1` [Example 404, (7R)-14-cyclohexyl-21-ethyl-4-fluoro-18,24-dimethyl-7,8-dihydro-6H-7,11-(epiminoethanoiminoethanoiminothioiminomethano)-indolo[1,2-e][1,5]benzoxazocin-15-one 17,17-dioxide], where the note is “Table 4, various macrocycles”, the IC50 was below 25 nM.

With `CC(C)N1CCN(C)C2COc3c(F)cccc3-c3c(C4CCCCC4)c4ccc(cc4n3C2)C(=O)NS(=O)(=O)N(C)CC1` [Example 405, (7R)-14-cyclohexyl-4-fluoro-21-isopropyl-18,24-dimethyl-7,8-dihydro-6H-7,11-(epiminoethanoiminoethanoiminothioiminomethano)-indolo[1,2-e][1,5]benzoxazocin-15-one 17,17-dioxide], the IC50 (Table 4, various macrocycles) was below 25 nM. On the same count and under the same terms, the value for `CCN1CCN(C)C2COc3c(cccc3C(F)(F)F)-c3c(C4CCCCC4)c4ccc(cc4n3C2)C(=O)NS(=O)(=O)N(C)CC1` [Example 406, (7R)-14-cyclohexyl-21-ethyl-18,24-dimethyl-4-(trifluoromethyl)-7,8-dihydro-6H-7,11-(epiminoethanoiminoethanoiminothioiminomethano)-indolo[1,2-e][1,5]benzoxazocin-15-one 17,17-dioxide] was 150 to 500 nM; that for `CN1CCN(C)[C@H]2COc3c(CC4CC4)cccc3-c3c(C4CCCCC4)c4ccc(cc4n3C2)C(=O)NS(=O)(=O)N(C)CC1` [Example 407, (7R)-14-cyclohexyl-4-(cyclopropylmethyl)-18,21,24-trimethyl-7,8-dihydro-6H-7,11-(epiminoethanoiminoethanoiminothioiminomethano)-indolo[1,2-e][1,5]benzoxazocin-15-one 17,17-dioxide] was below 25 nM; that for `CN1CCN(CC(N)=O)C2COc3ccccc3-c3c(C4CCCCC4)c4ccc(cc4n3C2)C(=O)NS(=O)(=O)N(C)CC1` [Example 408, 2-[(7R)-14-cyclohexyl-18,21-dimethyl-17,17-dioxido-15-oxo-7,8-dihydro-6H-7,11-(epiminoethanoiminoethanoiminothioiminomethano)-indolo[1,2-e][1,5]benzoxazocin-24-yl]acetamide] was 25 to 150 nM. On the same count and under the same terms, the value for `CN1CCN(Cc2cnn(C)c2)C2COc3ccccc3-c3c(C4CCCCC4)c4ccc(cc4n3C2)C(=O)NS(=O)(=O)N(C)CC1` [Example 409, (7R)-14-cyclohexyl-18,21-dimethyl-24-[(1-methyl-1H-pyrazol-4-yl)methyl]-7,8-dihydro-6H-7,11-(epiminoethanoiminoethanoiminothioiminomethano)-indolo[1,2-e][1,5]benzoxazocin-15-one 17,17-dioxide] was below 25 nM; that for `CN1CCNCCN(C)S(=O)(=O)NC(=O)c2ccc3c(C4CCCCC4)c4n(c3c2)C[C@@H]1COc1c(CN2CCOCC2)cccc1-4` [Example 410, (7R)-14-cyclohexyl-18,24-dimethyl-4-(morpholin-4-ylmethyl)-7,8-dihydro-6H-7,11-(epiminoethanoiminoethanoiminothioiminomethano)-indolo[1,2-e][1,5]benzoxazocin-15-one 17,17-dioxide] was 25 to 150 nM; that for `CN1CCN(C)[C@H]2COc3c(OCc4ccccc4)cccc3-c3c(C4CCCCC4)c4ccc(cc4n3C2)C(=O)NS(=O)(=O)N(C)CC1` [Example 411, (7R)-4-(benzyloxy)-14-cyclohexyl-18,21,24-trimethyl-7,8-dihydro-6H-7,11-(epiminoethanoiminoethanoiminothioiminomethano)-indolo[1,2-e][1,5]benzoxazocin-15-one 17,17-dioxide] was 25 to 150 nM. As for `COc1cccc2c1OCC1Cn3c-2c(C2CCCCC2)c2ccc(cc23)C(=O)NS(=O)(=O)N(C)CCN(C)CCN1C` [Example 412, (7R)-14-cyclohexyl-4-methoxy-18,21,24-trimethyl-7,8-dihydro-6H-7,11-(epiminoethanoiminoethanoiminothioiminomethano)-indolo[1,2-e][1,5]benzoxazocin-15-one 17,17-dioxide], the IC50 (Table 4, various macrocycles) was below 25 nM. Take `CN1C2CCN(CCC3COc4ccccc4-c4c(C5CCCCC5)c5ccc(cc5n4C3)C(=O)NS1(=O)=O)CC2` (stereo not shown) [Example 504, 30-cyclohexyl-23-methyl-6-oxa-22-thia-1,14,21,23-tetraazahexacyclo[22.2.2.1^4,14.1^13,16.1^15,19.0^7,12]hentriaconta-7,9,11,13(30),15(29),16,18-heptaen-20-one 22,22-dioxide]: the IC50 under setting [2] is 25 to 150 nM. As to `O=C1NS(=O)(=O)N2CCCN(CCCC3COc4ccccc4-c4c(C5CCCCC5)c5ccc1cc5n4C3)CC2` (stereo not shown) [Example 508, 31-cyclohexyl-18-oxa-2-thia-1,3,10,24-tetraazahexacyclo[22.3.2.1^5,9.1^8,11.1^10,20.0^12,17]dotriaconta-5(32),6,8,11(31),12,14,16-heptaen-4-one 2,2-dioxide], the concentration for half-maximal inhibition (IC50) under setting [2] was 25 to 150 nM. As for `CC(C)N1CCCC2COc3ccccc3-c3c(C4CCCCC4)c4ccc(cc4n3C2)C(=O)NS(=O)(=O)N(C)CC1` (stereo not shown) [Example 509, 14-cyclohexyl-21-isopropyl-18-methyl-7,8-dihydro-6H-7,11-(propanoiminoethanoiminothioiminomethano)indolo[1,2-e][1,5]benzoxazocin-15-one 17,17-dioxide], for the setting “Table 5, various macrocycles”, the IC50 is below 25 nM. Take `COc1cccc2c1OCC1CCCN(C)CCN(C)S(=O)(=O)NC(=O)c3ccc4c(C5CCCCC5)c-2n(c4c3)C1` [Example 510, (7R)-14-cyclohexyl-4-methoxy-18,21-dimethyl-7,8-dihydro-6H-7,11-(propanoiminoethanoiminothioiminomethano)indolo[1,2-e][1,5]benzoxazocin-15-one 17,17-dioxide]: under “Table 5, various macrocycles”, the IC50 was below 25 nM. For the compound `CN1CCCC2COc3c(OCCN4CCCC4)cccc3-c3c(C4CCCCC4)c4ccc(cc4n3C2)C(=O)NS(=O)(=O)N(C)CC1` [Example 511, (7R)-14-cyclohexyl-18,21-dimethyl-4-(2-pyrrolidin-1-ylethoxy)-7,8-dihydro-6H-7,11-(propanoiminoethanoiminothioiminomethano)indolo[1,2-e][1,5]benzoxazocin-15-one 17,17-dioxide], the half-maximal inhibitory concentration (IC50) (Table 5, various macrocycles) is below 25 nM. On the same count and under the same terms, the value for `CN1CCC(C)(C)CCN(C)S(=O)(=O)NC(=O)c2ccc3c(C4CCCCC4)c4n(c3c2)CC1COc1ccccc1-4` [Example 512, (7R)-14-cyclohexyl-18,21,21,24-tetramethyl-7,8-dihydro-6H-7,11-(epiminopentanoiminothioiminomethano)indolo[1,2-e][1,5]benzoxazocin-15-one 17,17-dioxide] was 150 to 500 nM; that for `Cc1cccc2c1OC[C@@H]1CCCN(C)CCN(C)S(=O)(=O)NC(=O)c3ccc4c([C@H]5CCCC[C@@H]5F)c-2n(c4c3)C1` [Example 513, (7R)-14-[(1R,2S)-2-fluorocyclohexyl]-4,18,21-trimethyl-7,8-dihydro-6H-7,11-(propanoiminoethanoiminothioiminomethano)indolo[1,2-e][1,5]benzoxazocin-15-one 17,17-dioxide] was below 25 nM; that for `Cc1cccc2c1OCC1Cn3c-2c(C2CCCCC2)c2ccc(cc23)C(=O)NS(=O)(=O)N(C)CCN(CC(=O)N(C)C)CCN1C` [Example 514, 2-[(7R)-14-cyclohexyl-4,18,24-trimethyl-17,17-dioxido-15-oxo-7,8-dihydro-6H-7,11-(epiminoethanoiminoethanoiminothioiminomethano)-indolo[1,2-e][1,5]benzoxazocin-21-yl]-N,N-dimethylacetamide] was below 25 nM.
